Holding throughout (assay type): biochemical
One test deals with T1, JAK1 (Homo sapiens, UniProt P23458).
T1 construct: made in house; host or cells: SF9 insect cells (baculovirus)
Put plainly: JAK1 inhibition (Table 4). The settings on record: read-out: JAK1 Ki.

The target of a further test is T2, JAK2 (Homo sapiens, UniProt O60674).
T2 construct: made in house; host or cells: SF9 insect cells (baculovirus)
Nature of the test: JAK2 inhibition (Table 4). Particulars: read-out: JAK2 Ki.

Another test has as its target T3, TYK2 (Homo sapiens, UniProt P29597).
T3 construct: made in house; host or cells: SF9 insect cells (baculovirus)
T3 sequence (P29597 873-1187): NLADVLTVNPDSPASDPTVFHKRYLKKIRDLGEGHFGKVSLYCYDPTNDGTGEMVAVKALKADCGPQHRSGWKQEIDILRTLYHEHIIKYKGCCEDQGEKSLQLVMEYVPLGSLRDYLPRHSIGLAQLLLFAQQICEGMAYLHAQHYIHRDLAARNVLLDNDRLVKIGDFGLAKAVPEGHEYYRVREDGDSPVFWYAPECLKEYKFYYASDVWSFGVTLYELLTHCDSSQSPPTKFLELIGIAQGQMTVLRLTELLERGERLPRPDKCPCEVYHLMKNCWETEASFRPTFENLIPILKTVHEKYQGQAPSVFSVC
Nature of the test: TYK2 inhibition (Table 4).

The next test addresses T4, JAK3 (Homo sapiens, UniProt P52333).
T4 construct: made in house; host or cells: SF9 insect cells (baculovirus)
Put plainly: JAK3 inhibition (Table 4). The settings on record: read-out: JAK3 Ki.

T2 sequence (O60674 812-1132): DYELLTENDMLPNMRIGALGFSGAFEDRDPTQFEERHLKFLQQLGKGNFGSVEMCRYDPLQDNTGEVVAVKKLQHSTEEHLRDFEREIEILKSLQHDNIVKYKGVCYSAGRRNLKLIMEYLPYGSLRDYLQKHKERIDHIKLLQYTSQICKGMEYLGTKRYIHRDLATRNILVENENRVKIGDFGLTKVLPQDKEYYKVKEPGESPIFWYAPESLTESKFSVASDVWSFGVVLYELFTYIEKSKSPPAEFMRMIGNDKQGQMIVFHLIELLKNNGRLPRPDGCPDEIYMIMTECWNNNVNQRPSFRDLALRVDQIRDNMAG
T1 sequence (P23458 852-1154): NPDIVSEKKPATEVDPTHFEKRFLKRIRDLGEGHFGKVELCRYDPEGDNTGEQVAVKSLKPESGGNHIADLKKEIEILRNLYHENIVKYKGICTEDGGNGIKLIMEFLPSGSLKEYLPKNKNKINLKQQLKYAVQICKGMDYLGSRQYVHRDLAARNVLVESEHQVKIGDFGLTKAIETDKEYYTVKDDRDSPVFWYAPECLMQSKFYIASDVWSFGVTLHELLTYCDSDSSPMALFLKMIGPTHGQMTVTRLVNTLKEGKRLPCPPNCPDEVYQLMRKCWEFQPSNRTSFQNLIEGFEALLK
T4 sequence (P52333 783-1124): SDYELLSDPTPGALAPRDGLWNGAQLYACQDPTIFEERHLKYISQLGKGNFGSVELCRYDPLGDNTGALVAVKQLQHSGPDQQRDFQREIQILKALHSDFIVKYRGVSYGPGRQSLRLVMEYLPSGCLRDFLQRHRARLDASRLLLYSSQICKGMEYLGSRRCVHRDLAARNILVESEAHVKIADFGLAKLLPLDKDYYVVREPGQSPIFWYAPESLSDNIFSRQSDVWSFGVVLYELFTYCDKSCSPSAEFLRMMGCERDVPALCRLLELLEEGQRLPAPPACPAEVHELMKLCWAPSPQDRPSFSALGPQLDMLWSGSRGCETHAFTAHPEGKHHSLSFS

`CC(C)(C)OC(=O)N1CCC(n2c(C#N)nc3cnc4[nH]ccc4c32)CC1` [Example 169, 4-(2-Cyano-6H-1,2,3,5,6-tetraaza-as-indacen-1-yl)-piperidine-1-carboxylic acid tert-butyl ester]: the Ki (as a rule, the equilibrium dissociation constant of an inhibitor or competing ligand from its target) at JAK1 amounted to 292 nM; on JAK2, 186 nM; at TYK2 it was 2930 nM.
In the case of `c1cc2c(ncc3nc(C4CCCN4)n(C4CCCOC4)c32)[nH]1` (single isomer, unassigned) [Example 665], the Ki at JAK1 came to 432 nM; at JAK2 it was 1800 nM; at JAK3 it was 1780 nM.
For `Cc1nn(C)cc1CN1CCC(n2c([C@@H](C)O)nc3cnc4[nH]ccc4c32)CC1` [Example 828, (R)-1-{1-[1-(1,3-Dimethyl-1H-pyrazol-4-ylmethyl)-piperidin-4-yl]-1,6-dihydro-1,3,5,6-tetraaza-as-indacen-2-yl}-ethanol] the same measures were 90.5 nM, 1670 nM and 949 nM.
In the case of `CC(C)(O)c1nc2cnc3[nH]ccc3c2n1C1CCN(Cc2ccccc2)CC1` [Example 171, 2-[1-(1-Benzyl-piperidin-4-yl)-1,6-dihydro-1,2,3,5,6-tetraaza-as-indacen-2-yl]-propan-2-ol], the Ki on JAK1 came to 49.9 nM; on JAK2, 241 nM; on JAK3 it was 103 nM.
For `c1ccc(CN2CCC(n3c(CN4CCOCC4)nc4cnc5[nH]ccc5c43)CC2)cc1` [Example 155, 1-(1-Benzyl-piperidin-4-yl)-2-morpholin-4-ylmethyl-1,6-dihydro-1,2,3,5,6-tetraaza-as-indacene] the same measures were 120 nM, 452 nM and 304 nM.
The matching figures for `COCC(=O)NC1CCCC(n2cnc3cnc4[nH]ccc4c32)C1` (single isomer, unassigned) [Example 483, 2-Methoxy-N-[3-(6H-1,3,5,6-tetraaza-as-indacen-1-yl)-cyclohexyl]-acetamide]: 472 nM, 832 nM and 613 nM.
The matching figures for `CC(C)(C)OC(=O)N1CCCC[C@H]1CN[C@H]1CC[C@H](n2cnc3cnc4[nH]ccc4c32)CC1` [Example 564, trans (S)-2-{[4-(6H-1,3,5,6-Tetraaza-as-indacen-1-yl)-cyclohexylamino]-methyl}-piperidine-1-carboxylic acid tert-butyl ester]: 112 nM, 710 nM and 2650 nM.
Regarding `CCn1cc(CN2CCC(n3c([C@@H](C)O)nc4cnc5[nH]ccc5c43)CC2)c(C)n1` [Example 829, (R)-1-{1-[1-(1-Ethyl-3-methyl-1H-pyrazol-4-ylmethyl)-piperidin-4-yl]-1,6-dihydro-1,3,5,6-tetraaza-as-indacen-2-yl}-ethanol], the Ki was determined as 94.3 nM at JAK1, 939 nM on JAK2 and 1320 nM on JAK3.
On to `C[C@@H](O)c1nc2cnc3[nH]ccc3c2n1C1CCN(CC(=O)N2CCCC2)CC1` [Example 872, 2-{4-[2-((R)-1-Hydroxy-ethyl)-6H-1,3,5,6-tetraaza-as-indacen-1-yl]-piperidin-1-yl}-1-pyrrolidin-1-yl-ethanone], for which the Ki stood at 164 nM on JAK1, 983 nM on JAK2 and 998 nM on JAK3.
The matching figures for `COCCNc1nc2cnc3[nH]ccc3c2n1C1CCNCC1` [Example 657, (2-Methoxy-ethyl)-(1-piperidin-4-yl-1,6-dihydro-1,2,3,5,6-tetraaza-as-indacen-2-yl)-amine]: 29.1 nM, 1280 nM and 668 nM.
The matching figures for `CC(C)(O)c1nc2cnc3[nH]ccc3c2n1C1CCNCC1` [Example 334, 2-(1-Piperidin-4-yl-1,6-dihydro-1,3,5,6-tetraaza-as-indacen-2-yl)-propan-2-ol]: 137 nM, 2240 nM and 2550 nM.
The matching figures for `c1cc(N2CCC[C@@H](n3cnc4cnc5[nH]ccc5c43)C2)ccn1` [Example 13, (R)-1-(3,4,5,6-Tetrahydro-2H-[1,4]bipyridinyl-3-yl)-1,6-dihydro-1,2,3,5,6-tetraaza-as-indacene]: 179 nM, 898 nM and 1840 nM.
Take `c1cncc(-c2nc3cnc4[nH]ccc4c3n2C2CCNCC2)c1` [Example 153, 1-Piperidin-4-yl-2-pyridin-3-yl-1,6-dihydro-1,2,3,5,6-tetraaza-as-indacene]: the Ki at JAK1 came out at 181 nM; at JAK2, 587 nM; on JAK3, 784 nM.
The matching figures for `Cc1nc(CN2CCC(n3c([C@@H](C)O)nc4cnc5[nH]ccc5c43)CC2)n(C)c1C` [Example 827, (R)-1-{1-[1-(1,4,5-Trimethyl-1H-imidazol-2-ylmethyl)-piperidin-4-yl]-1,6-dihydro-1,3,5,6-tetraaza-as-indacen-2-yl}-ethanol]: 73.9 nM, 1720 nM and 1460 nM.
With `C[C@H](O)c1nc2cnc3[nH]ccc3c2n1[C@@H]1CCCN(C(=O)Cn2ccnc2)C1` [Example 781, 1-{(R)-3-[2-((S)-1-Hydroxy-ethyl)-6H-1,3,5,6-tetraaza-as-indacen-1-yl]-piperidin-1-yl}-2-imidazol-1-yl-ethanone], the Ki at JAK1 is 380 nM; on JAK2, 1490 nM; at JAK3 it was 4000 nM.
The matching figures for `Cc1ncc(CN2CCC(n3c([C@@H](C)O)nc4cnc5[nH]ccc5c43)CC2)n1C` [Example 830, (R)-1-{1-[1-(2,3-Dimethyl-3H-imidazol-4-ylmethyl)-piperidin-4-yl]-1,6-dihydro-1,3,5,6-tetraaza-as-indacen-2-yl}-ethanol]: 109 nM, 1730 nM and 711 nM.
For `O=C(c1nc2cnc3[nH]ccc3c2n1C1CCN(Cc2ccccc2)CC1)N1CCOCC1` [Example 237, [1-(1-Benzyl-piperidin-4-yl)-1,6-dihydro-1,3,5,6-tetraaza-as-indacen-2-yl]-morpholin-4-yl-methanone] the same measures were 106 nM, 494 nM and 47 nM.
Consider `CC(C)n1cc(CN2CCC(n3c([C@@H](C)O)nc4cnc5[nH]ccc5c43)CC2)cn1` [Example 824, (R)-1-{1-[1-(1-Isopropyl-1H-pyrazol-4-ylmethyl)-piperidin-4-yl]-1,6-dihydro-1,3,5,6-tetraaza-as-indacen-2-yl}-ethanol], for which the results for the Ki on JAK1, on JAK2 and on JAK3 were 24.5 nM, 1210 nM and 600 nM, respectively.
For `C[C@@H](O)c1nc2cnc3[nH]ccc3c2n1[C@@H]1CCCN(C(=O)Cn2ccnc2)C1` [Example 798, 1-{(R)-3-[2-((R)-1-Hydroxy-ethyl)-6H-1,3,5,6-tetraaza-as-indacen-1-yl]-piperidin-1-yl}-2-imidazol-1-yl-ethanone] the same measures were 69 nM, 2640 nM and 897 nM.
`C[C@@H](O)c1nc2cnc3[nH]ccc3c2n1[C@@H]1CCCN(C(=O)CCn2ccnc2)C1` [Example 797, 1-{(R)-3-[2-((R)-1-Hydroxy-ethyl)-6H-1,3,5,6-tetraaza-as-indacen-1-yl]-piperidin-1-yl}-3-imidazol-1-yl-propan-1-one]: the Ki on JAK1 was 159 nM; on JAK2 it was 1750 nM; at JAK3, 1630 nM.
For `Cc1nn(C)c(C)c1CN1CCC(n2c([C@@H](C)O)nc3cnc4[nH]ccc4c32)CC1` [Example 831, (R)-1-{1-[1-(1,3,5-Trimethyl-1H-pyrazol-4-ylmethyl)-piperidin-4-yl]-1,6-dihydro-1,3,5,6-tetraaza-as-indacen-2-yl}-ethanol] the same measures were 309 nM, 2680 nM and 1000 nM.
For `CC(C)(C#N)c1nc2cnc3[nH]ccc3c2n1C1CCN(Cc2cnccn2)CC1` [Example 164, 2-Methyl-2-[1-(1-pyrazin-2-ylmethyl-piperidin-4-yl)-1,6-dihydro-1,2,3,5,6-tetraaza-as-indacen-2-yl]-propionitrile] the same measures were 52.8 nM, 129 nM and 57.1 nM.
For `C[C@@H](O)c1nc2cnc3[nH]ccc3c2n1C1CCN(CC(=O)N2CCOCC2)CC1` [Example 870, 2-{4-[2-((R)-1-Hydroxy-ethyl)-6H-1,3,5,6-tetraaza-as-indacen-1-yl]-piperidin-1-yl}-1-morpholin-4-yl-ethanone], the Ki was 267 nM on JAK1, 1440 nM on JAK2 and 1370 nM on JAK3.
The matching figures for `CC(=O)N1CCC(n2c(C(F)(F)CN)nc3cnc4[nH]ccc4c32)CC1` [Example 139, 1-{4-[2-(2-Amino-1,1-difluoro-ethyl)-6H-1,2,3,5,6-tetraaza-as-indacen-1-yl]-piperidin-1-yl}-ethanone]: 339 nM, 930 nM and 1450 nM.
For the compound `CC(C)(C)OC(=O)N1CCC(n2c(NCCO)nc3cnc4[nH]ccc4c32)CC1` [Example 654, 4-[(2-Hydroxy-ethylamino)-6H-1,2,3,5,6-tetraaza-as-indacen-1-yl]-piperidine-1-carboxylic acid tert-butyl ester], the Ki at JAK1 worked out at 453 nM; on JAK2 it was 763 nM; at JAK3 it was 2090 nM.

Values taken from patent publication US8461328B2, “Tricyclic heterocyclic compounds, compositions and methods of use thereof” (Genentech, Inc., priority 2010, dated 2013).
